IC50 data for 26 molecules are collected here from patent US10377770B2 (Novartis AG, priority 2015, dated 2019).

Broadly, the IC50 is the concentration that inhibits the measured activity by half. The low end stands for greater potency, the high end for weaker potency.

The assay has as its target C-Raf FL (full length CRAF with Y340E and Y341E activating mutations, co-expressed with h14-3-3 zeta) (Homo sapiens (Human), UniProt P04049, Y340E/Y341E). Put plainly: In vitro Raf activity determination, AlphaScreen p-MEK readout, c-Raf (C-Raf FL). The format is biochemical. As to conditions: c-Raf approximately 4 nM, ATP 1 μM, pre-incubation 60 minutes, reaction 1 hour. The essentials:
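Full-length C-Raf (~4 nM) pre-incubated 60 min at room temperature with compound and kinase-dead biotinylated MEK1 (~10 nM) in Tris pH 7.5, 15 mM MgCl2, BSA, DTT. Reaction started with 1 μM ATP and run 1 h at room temperature. Phospho-MEK detected by AlphaScreen with anti-p-MEK antibody.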

C-Raf FL (full length CRAF with Y340E and Y341E activating mutations, co-expressed with h14-3-3 zeta), sequence (P04049 whole entry Y340E/Y341E): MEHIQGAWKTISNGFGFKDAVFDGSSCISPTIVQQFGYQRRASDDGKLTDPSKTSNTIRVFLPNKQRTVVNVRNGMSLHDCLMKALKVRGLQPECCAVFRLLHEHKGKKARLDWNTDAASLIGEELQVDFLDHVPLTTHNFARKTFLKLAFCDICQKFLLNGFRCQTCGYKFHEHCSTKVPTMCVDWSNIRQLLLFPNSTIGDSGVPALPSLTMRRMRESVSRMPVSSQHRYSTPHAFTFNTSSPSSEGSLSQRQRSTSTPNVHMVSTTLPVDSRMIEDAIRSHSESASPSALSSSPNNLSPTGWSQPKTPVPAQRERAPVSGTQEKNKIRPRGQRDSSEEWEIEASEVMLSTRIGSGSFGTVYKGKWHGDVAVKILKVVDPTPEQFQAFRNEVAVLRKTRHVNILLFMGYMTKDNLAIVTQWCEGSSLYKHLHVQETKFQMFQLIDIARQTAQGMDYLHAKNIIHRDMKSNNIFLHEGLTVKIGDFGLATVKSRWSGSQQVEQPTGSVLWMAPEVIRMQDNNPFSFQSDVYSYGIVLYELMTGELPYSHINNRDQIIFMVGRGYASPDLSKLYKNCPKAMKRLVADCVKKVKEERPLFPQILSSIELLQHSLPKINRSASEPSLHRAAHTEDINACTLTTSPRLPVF
C-Raf FL (full length CRAF with Y340E and Y341E activating mutations, co-expressed with h14-3-3 zeta), sequence (P63104 whole entry partner): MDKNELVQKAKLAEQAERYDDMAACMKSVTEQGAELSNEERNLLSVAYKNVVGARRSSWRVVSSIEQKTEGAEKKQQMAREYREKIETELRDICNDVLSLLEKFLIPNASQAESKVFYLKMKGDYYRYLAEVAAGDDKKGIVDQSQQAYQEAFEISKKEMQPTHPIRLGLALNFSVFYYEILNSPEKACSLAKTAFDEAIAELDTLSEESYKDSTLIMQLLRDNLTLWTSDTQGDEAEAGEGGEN

Molecule `Cc1ccc(NC(=O)c2cncc(C(F)(F)F)c2)cc1-c1cc(F)c2c(c1)N1CCOC[C@H]1[C@@](F)(CO)C2` [Example 434, N-(3-((4aS,5R)-5,7-difluoro-5-(hydroxymethyl)-1,2,4,4a,5,6-hexahydro-[1,4]oxazino[4,3-a]quinolin-9-yl)-4-methylphenyl)-5-(trifluoromethyl)nicotinamide] displayed an IC50 of 1.3 nM. That is a single-digit nanomolar value.

`Cc1ccc(NC(=O)c2ccnc(C(C)(F)F)c2)cc1-c1cc(F)c2c(c1)N1CCOC[C@@H]1[C@](F)(CO)C2` [Example 436, N-(3-((4aR,5S)-5,7-difluoro-5-(hydroxymethyl)-1,2,4,4a,5,6-hexahydro-[1,4]oxazino[4,3-a]quinolin-9-yl)-4-methylphenyl)-2-(1,1-difluoroethyl) isonicotinamide] displayed an IC50 of 0.3 nM.

Molecule `Cc1ncc(NC(=O)c2cccc(C(F)(F)F)c2)cc1-c1cc(F)c2c(c1)N1CCOC[C@@H]1[C@](F)(CO)C2` [Example 437, N-(5-((4aR,5S)-5,7-difluoro-5-(hydroxymethyl)-1,2,4,4a,5,6-hexahydro-[1,4]oxazino[4,3-a]quinolin-9-yl)-6-methylpyridin-3-yl)-3-(trifluoro-methyl)benzamide] registered an IC50 of 0.6 nM.

In turn, `Cc1ccc(NC(=O)c2ccnc(C(C)(C)F)c2)cc1-c1cc(F)c2c(c1)N1CCOC[C@@H]1[C@](F)(CO)C2` [Example 438, N-(3-((4aR,5S)-5,7-difluoro-5-(hydroxymethyl)-1,2,4,4a,5,6-hexahydro-[1,4]oxazino[4,3-a]quinolin-9-yl)-4-methylphenyl)-2-(2-fluoropropan-2-yl)isonicotinamide] came in with an IC50 of 0.8 nM.

As to `Cc1ccc(NC(=O)c2cnnc(C(F)(F)F)c2)cc1-c1cc(F)c2c(c1)N1CCOC[C@@H]1[C@](F)(CO)C2` [Example 439, N-(3-((4aR,5S)-5,7-difluoro-5-(hydroxymethyl)-1,2,4,4a,5,6-hexahydro-[1,4]oxazino[4,3-a]quinolin-9-yl)-4-methylphenyl)-6-(trifluoromethyl) pyridazine-4-carboxamide], the IC50 amounted to 0.1 nM. Compared with the last molecule, the IC50 is about 8-fold lower.

`Cc1ccc(NC(=O)c2cncc(C(F)(F)F)c2)cc1-c1cc(F)c2c(c1)N1CCOC[C@@H]1[C@](F)(CO)C2` [Example 440, N-(3-((4aR,5S)-5,7-difluoro-5-(hydroxymethyl)-1,2,4,4a,5,6-hexahydro-[1,4]oxazino[4,3-a]quinolin-9-yl)-4-methylphenyl)-5-(trifluoromethyl) nicotinamide] came in with an IC50 of 0.3 nM.

Take `Cc1ncc(NC(=O)c2ccnc(C(F)(F)F)c2)cc1-c1ccc2c(c1)N1CCOCC[C@H]1C[C@H]2O` [Example 442, N-(5-((5aS,7R)-7-hydroxy-1,2,5,5a,6,7-hexahydro-4H-[1,4]oxazepino [4,5-a]quinolin-10-yl)-6-methylpyridin-3-yl)-2-(trifluoromethyl) isonicotinamide]: the IC50 amounted to 0.7 nM.

With `Cc1ncc(NC(=O)c2ccnc(C(F)(F)F)c2)cc1-c1ccc2c(c1)N1CCOCC[C@H]1C[C@@H]2O` [Example 443, N-(5-((5aS,7S)-7-hydroxy-1,2,5,5a,6,7-hexahydro-4H-[1,4]oxazepino [4,5-a]quinolin-10-yl)-6-methylpyridin-3-yl)-2-(trifluoromethyl) isonicotinamide], the IC50 came out at 0.6 nM.

`Cc1ncc(NC(=O)c2ccnc(C(C)(C)F)c2)cc1-c1ccc2c(c1)N1CCOCC[C@H]1C[C@H]2O` [Example 444] had an IC50 of 0.4 nM.

With `Cc1ncc(NC(=O)c2ccnc(C(C)(C)F)c2)cc1-c1ccc2c(c1)N1CCOCC[C@H]1C[C@@H]2O` [Example 445, 2-(2-fluoropropan-2-yl)-N-(5-((5aS,7S)-7-hydroxy-1,2,5,5a,6,7-hexahydro-4H-[1,4]oxazepino [4,5-a]quinolin-10-yl)-6-methylpyridin-3-yl)isonicotinamide], half-maximal inhibition (IC50) was put at 0.7 nM.

In the case of `Cc1ncc(NC(=O)c2cccc(C(F)(F)F)c2)cc1-c1ccc2c(c1)N1CCOCC[C@H]1C[C@H]2O` [Example 446, N-(5-((5aS,7R)-7-hydroxy-1,2,5,5a,6,7-hexahydro-4H-[1,4]oxazepino [4,5-a]quinolin-10-yl)-6-methylpyridin-3-yl)-3-(trifluoro-methyl)benzamide], the IC50 came to 0.7 nM.

In the case of `Cc1ncc(NC(=O)c2cccc(C(F)(F)F)c2)cc1-c1ccc2c(c1)N1CCOCC[C@H]1C[C@@H]2O` [Example 447, N-(5-((5aS,7S)-7-hydroxy-1,2,5,5a,6,7-hexahydro-4H-[1,4]oxazepino [4,5-a]quinolin-10-yl)-6-methylpyridin-3-yl)-3-(trifluoro-methyl)benzamide], the IC50 is 0.5 nM.

`Cc1ccc(NC(=O)c2ccnc(C(F)(F)F)c2)cc1-c1cnc2c(c1)N1CCOC[C@@H]1[C@H](C(C)(C)O)C2` [Example 448, N-(3-((4aS,5R)-5-(2-hydroxypropan-2-yl)-1,2,4,4a,5,6-hexahydro-[1,4]oxazino[4,3-a][1,5]naphthyridin-9-yl)-4-methylphenyl)-2-(trifluoromethyl)isonicotinamide]: 0.2 nM corresponded to half-maximal inhibition (IC50).

As for `Cc1ncc(NC(=O)c2cccc(C(F)(F)F)c2)cc1-c1cnc2c(c1)N1CCOC[C@@H]1[C@H](C(C)(C)O)C2` [Example 449, N-(5-((4aS,5R)-5-(2-hydroxypropan-2-yl)-1,2,4,4a,5,6-hexahydro-[1,4]oxazino[4,3-a] [1,5]naphthyridin-9-yl)-6-methylpyridin-3-yl)-3-(trifluoro-methyl)benzamide], the IC50 amounted to 0.7 nM.

The molecule `Cc1ccc(NC(=O)c2ccnc(C(C)(F)F)c2)cc1-c1cnc2c(c1)N1CCOC[C@@H]1[C@H](C(C)(C)O)C2` [Example 450, 2-(1,1-difluoroethyl)-N-(3-((4aS,5R)-5-(2-hydroxypropan-2-yl)-1,2,4,4a,5,6-hexahydro-[1,4]oxazino[4,3-a][1,5]naphthyridin-9-yl)-4-methylphenyl) isonicotinamide] returned an IC50 of 0.2 nM.

For `Cc1ccc(NC(=O)c2ccnc(C(F)(F)F)c2)cc1-c1cnc2c(c1)N1CCOC[C@H]1[C@@H](C(C)(C)O)C2` [Example 451, N-(3-((4aR,5S)-5-(2-hydroxypropan-2-yl)-1,2,4,4a,5,6-hexahydro-[1,4]oxazino[4,3-a][1,5]naphthyridin-9-yl)-4-methylphenyl)-2-(trifluoromethyl) isonicotinamide], inhibition was half-maximal at 0.6 nM (IC50).

The molecule `Cc1ncc(NC(=O)c2cccc(C(F)(F)F)c2)cc1-c1cnc2c(c1)N1CCOC[C@H]1[C@@H](C(C)(C)O)C2` [Example 452, N-(5-((4aR,5S)-5-(2-hydroxypropan-2-yl)-1,2,4,4a,5,6-hexahydro-[1,4]oxazino[4,3-a][1,5]naphthyridin-9-yl)-6-methylpyridin-3-yl)-3-(trifluoro-methyl)benzamide] yielded an IC50 of 0.5 nM. This IC50 and that of the molecule before are within 1.5-fold of each other.

For `Cc1ccc(NC(=O)c2ccnc(C(C)(F)F)c2)cc1-c1cnc2c(c1)N1CCOC[C@H]1[C@@H](C(C)(C)O)C2` [Example 453, 2-(1,1-difluoroethyl)-N-(3-((4aR,5S)-5-(2-hydroxypropan-2-yl)-1,2,4,4a,5,6-hexahydro-[1,4]oxazino[4,3-a][1,5]naphthyridin-9-yl)-4-methylphenyl) isonicotinamide], the IC50 was determined as 0.7 nM.

Molecule `Cc1ccc(NC(=O)c2ccnc(C(F)(F)F)c2)cc1-c1cnc2c(c1)N1CCOC[C@@H]1[C@@H](C(C)(C)O)C2` [Example 454] showed an IC50 of 0.8 nM. This IC50 and that of the molecule before are within 1.5-fold of each other.

Consider `Cc1ncc(NC(=O)c2cccc(C(F)(F)F)c2)cc1-c1cnc2c(c1)N1CCOC[C@@H]1[C@@H](C(C)(C)O)C2` [Example 455, N-(5-((4aS,5S)-5-(2-hydroxypropan-2-yl)-1,2,4,4a,5,6-hexahydro-[1,4]oxazino[4,3-a][l,5]naphthyridin-9-yl)-6-methylpyridin-3-yl)-3-(trifluoro-methyl)benzamide], for which the IC50 is 1.3 nM. Against the preceding molecule, the IC50 is about 1.6-fold higher.

For the molecule `Cc1ccc(NC(=O)c2ccnc(C(C)(F)F)c2)cc1-c1cnc2c(c1)N1CCOC[C@@H]1[C@@H](C(C)(C)O)C2` [Example 456, 2-(1,1-difluoroethyl)-N-(3-((4aS,5S)-5-(2-hydroxypropan-2-yl)-1,2,4,4a,5,6-hexahydro-[1,4]oxazino[4,3-a][1,5]naphthyridin-9-yl)-4-methylphenyl) isonicotinamide], the IC50 turned out to be 0.7 nM.

Take `Cc1ccc(NC(=O)c2ccnc(C(F)(F)F)c2)cc1-c1cnc2c(c1)N1CCOC[C@H]1[C@H](C(C)(C)O)C2` [Example 457]: the IC50 stood at 0.4 nM.

Regarding `Cc1ncc(NC(=O)c2cccc(C(F)(F)F)c2)cc1-c1cnc2c(c1)N1CCOC[C@H]1[C@H](C(C)(C)O)C2` [Example 458, N-(5-((4aR,5R)-5-(2-hydroxypropan-2-yl)-1,2,4,4a,5,6-hexahydro-[1,4]oxazino[4,3-a][1,5]naphthyridin-9-yl)-6-methylpyridin-3-yl)-3-(trifluoro-methyl)benzamide], the IC50 is 0.7 nM.

Molecule `Cc1ccc(NC(=O)c2ccnc(C(C)(F)F)c2)cc1-c1cnc2c(c1)N1CCOC[C@@H]1[C@@H](C(C)(C)O)C2` [Example 459, 2-(1,1-difluoroethyl)-N-(3-((4aS,5S)-5-(2-hydroxypropan-2-yl)-1,2,4,4a,5,6-hexahydro-[1,4]oxazino[4,3-a][1,5]naphthyridin-9-yl)-4-methylphenyl) isonicotinamide] came in with an IC50 of 0.4 nM.

As for `Cc1ncc(NC(=O)c2ccnc(C(C)(F)F)c2)cc1-c1ccc2c(c1)N1CCOC[C@H]1[C@](F)(CF)C2` [Example 467], the IC50 is 1.9 nM.

For `Cc1ncc(NC(=O)c2ccnc(C(C)(C)C)c2)cc1-c1ccc2c(c1)N1CCOC[C@H]1[C@](F)(CF)C2` [Example 468, 2-(tert-butyl)-N-(5-((4aS,5S)-5-fluoro-5-(fluoromethyl)-1,2,4,4a,5,6-hexahydro-[1,4]oxazino[4,3-a]quinolin-9-yl)-6-methylpyridin-3-yl)isonicotinamide], the IC50 came out at 8 nM.
